Reference: ChEMBL document CHEMBL1201862, “PubChem BioAssay data set” (2004)
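48-hour exposure; five concentrations; linearly interpolated endpoints. GI50: concentration for 50% inhibition of growth.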 Calls of active or inactive are those of the source. Rule as the data show it: active = GI50 up to about 1.1 µM and inactive = higher.

How the values were obtained:
Test in all cases: growth of human tumour cells (NCI), 48 h
[1] = test system: A549
[2] = test system: ACHN
[3] = test system: COLO 205
[4] = test system: EKVX
[5] = test system: HCT-116
[6] = test system: HT-29
[7] = test system: IGROV-1
[8] = test system: K562
[9] = test system: KM12
[10] = test system: MOLT-4
[11] = test system: NCI-H226
[12] = test system: NCI-H460
[13] = test system: NCI/ADR-RES
[14] = test system: SK-MEL-5
[15] = test system: SNB-19
[16] = test system: SW-620
[17] = test system: UACC-62
[18] = test system: LOX IMVI
[19] = test system: SF-539
[20] = test system: SR

Measured: GI50

Nn1c(CCCCCCCCc2nnc(COc3c(O)ccc4ccccc34)n2N)nnc1COc1c(O)ccc2ccccc12
inactive: [1] > 100 µM | [2] > 100 µM | [3] > 100 µM | [4] > 100 µM | [5] 49.5 µM | [6] > 100 µM | [7] > 100 µM | [8] > 100 µM | [9] > 100 µM | [10] > 100 µM | [11] > 100 µM | [12] 57.9 µM | [13] > 100 µM | [14] > 100 µM | [15] > 100 µM | [16] > 100 µM | [17] > 100 µM

COc1ccccc1C1SCC(=O)N1c1ccc(-c2ccc(-n3c(-c4ccccc4)nc4ccccc4c3=O)cc2)cc1 (stereo unspecified)
inactive: [1] > 100 µM | [2] > 100 µM | [3] > 100 µM | [4] > 100 µM | [5] > 100 µM | [6] > 100 µM | [7] > 100 µM | [8] > 100 µM | [9] > 100 µM | [18] > 100 µM | [10] > 100 µM | [11] > 100 µM | [12] > 100 µM | [13] > 100 µM | [19] 31 µM | [14] > 100 µM | [15] > 100 µM | [16] > 100 µM | [17] 84.3 µM

COc1ccc(/N=C/N(C)C)c(C)c1
inactive: [1] 7.23 µM | [2] 18.7 µM | [3] 10.5 µM | [4] 10.6 µM | [5] 4.15 µM | [6] 5.4 µM | [7] 9.48 µM | [8] 2.51 µM | [18] 3.15 µM | [10] 2.6 µM | [11] 11.2 µM | [13] 44.7 µM | [19] 22.9 µM | [14] 3.01 µM | [15] 21.6 µM | [17] 7.08 µM

CCCCc1ccc(C#CC#Cc2ccc(CCCC)s2)s1
inactive: [2] > 100 µM | [3] > 100 µM | [4] > 100 µM | [5] > 100 µM | [6] > 100 µM | [7] > 100 µM | [9] > 100 µM | [10] > 100 µM | [11] > 100 µM | [12] > 100 µM | [13] > 100 µM | [19] > 100 µM | [14] > 100 µM | [20] > 100 µM | [16] > 100 µM | [17] > 100 µM

CCOC(=O)C(CCSC)(CCSC)C(=O)OCC
inactive: [1] > 100 µM | [2] > 100 µM | [3] > 100 µM | [4] > 100 µM | [5] > 100 µM | [6] > 100 µM | [7] > 100 µM | [8] > 100 µM | [9] > 100 µM | [18] > 100 µM | [10] > 100 µM | [11] > 100 µM | [12] > 100 µM | [13] > 100 µM | [19] > 100 µM | [14] > 100 µM | [15] > 100 µM | [16] > 100 µM | [17] 18.7 µM

Clc1ccc2nc3[nH]nc(Cl)c3nc2c1
inactive: [1] 36.8 µM | [2] 52.8 µM | [3] 52.5 µM | [4] 16.7 µM | [5] 42.9 µM | [6] 59.3 µM | [8] 52.4 µM | [9] 59.3 µM | [10] 30.5 µM | [12] 40.1 µM | [13] 56.2 µM | [19] 40.8 µM | [14] 27.1 µM | [15] 45.6 µM | [16] 72.6 µM | [17] 45.3 µM

CC(=O)NC1C(OCC(=O)NCCNc2ccc([N+](=O)[O-])c3[nH]c4ccccc4c(=O)c23)C(O)C(CO)OC1(C)OCc1ccccc1 (stereo unspecified)
inactive: [1] > 100 µM | [2] > 100 µM | [3] > 100 µM | [4] > 100 µM | [5] > 100 µM | [6] > 100 µM | [7] > 100 µM | [8] > 100 µM | [9] > 100 µM | [18] > 100 µM | [10] > 100 µM | [11] > 100 µM | [12] 50.4 µM | [13] > 100 µM | [19] > 100 µM | [14] > 100 µM | [15] > 100 µM | [16] > 100 µM | [17] > 100 µM

O=[N+]([O-])c1ccc2c(c1)c(OCc1ccccc1)nn2Cc1ccccc1
inactive: [1] 64.1 µM | [2] 43.8 µM | [6] > 100 µM | [7] > 100 µM | [8] > 100 µM | [9] > 100 µM | [18] > 100 µM | [10] 57 µM | [11] > 100 µM | [12] > 100 µM | [13] > 100 µM | [19] 34.5 µM | [14] 58.2 µM | [15] > 100 µM | [16] > 100 µM | [17] 80.4 µM

Clc1ccc(/C=C/c2nc(Cl)c(-c3ccc(Cl)cc3)c(Cl)n2)cc1
inactive: [1] 37.9 µM | [2] 35.2 µM | [3] > 100 µM | [4] 69.8 µM | [5] 46.8 µM | [6] 48.9 µM | [7] 60 µM | [8] 32.1 µM | [9] > 100 µM | [18] 86.9 µM | [10] 32.5 µM | [11] 80.9 µM | [12] 61 µM | [13] 68.2 µM | [19] 57.7 µM | [14] 38.8 µM | [15] > 100 µM | [16] 68.7 µM | [17] > 100 µM

Cc1c(/C=N\NC(=S)N2CCN(C(=S)N/N=C\c3c(C)n(C)n(-c4ccccc4)c3=O)CC2)c(=O)n(-c2ccccc2)n1C
inactive: [1] 47.9 µM | [2] 21.2 µM | [3] > 100 µM | [4] 71.6 µM | [5] 49.5 µM | [6] 13.1 µM | [9] 69.7 µM | [10] 37.4 µM | [11] > 100 µM | [12] 42 µM | [13] > 100 µM | [19] > 100 µM | [14] > 100 µM | [15] 47.5 µM | [20] 47.9 µM | [16] 33.2 µM | [17] 32.9 µM

COC1(CCO)CC=CCC1(CCO)OC (stereo unspecified)
inactive: [1] > 100 µM | [2] > 100 µM | [3] > 100 µM | [4] > 100 µM | [5] > 100 µM | [6] > 100 µM | [7] > 100 µM | [8] > 100 µM | [9] > 100 µM | [18] > 100 µM | [10] > 100 µM | [11] > 100 µM | [12] > 100 µM | [13] > 100 µM | [14] > 100 µM | [15] > 100 µM | [16] > 100 µM | [17] > 100 µM

COC(=O)C(=O)C(C(C)=O)C(=O)NCc1ccc(OC)c(OC)c1 (stereo unspecified)
inactive: [1] > 100 µM | [2] > 100 µM | [3] > 100 µM | [4] > 100 µM | [5] > 100 µM | [6] > 100 µM | [7] > 100 µM | [8] > 100 µM | [9] > 100 µM | [18] > 100 µM | [10] > 100 µM | [11] > 100 µM | [12] > 100 µM | [19] > 100 µM | [14] > 100 µM | [15] > 100 µM | [20] > 100 µM | [16] 40.5 µM | [17] > 100 µM

CN/N=C(\C(=O)Nc1ccc(C(F)(F)F)cc1[N+](=O)[O-])C(c1cnc2ccc([N+](=O)[O-])cc2n1)[N+](=O)[O-] (stereo unspecified)
inactive: [1] 28 µM | [2] 21.8 µM | [3] 28.6 µM | [4] 6.71 µM | [5] 41.4 µM | [6] 67.1 µM | [7] > 100 µM | [8] 8.79 µM | [9] 48.6 µM | [18] 12.1 µM | [10] 14.8 µM | [11] 17.9 µM | [12] 33.3 µM | [19] 25.6 µM | [14] 28.1 µM | [15] 96.6 µM | [20] 27.7 µM | [16] 46 µM | [17] > 10 µM

O=[N+]([O-])c1cc(/N=N/c2c(O)ccc3cc(S(=O)(=O)O)ccc23)c(O)c([N+](=O)[O-])c1
inactive: [1] > 100 µM | [2] > 100 µM | [3] > 100 µM | [4] > 100 µM | [5] > 100 µM | [6] 50.2 µM | [7] > 100 µM | [8] > 100 µM | [9] 31.9 µM | [18] 49 µM | [10] 31.5 µM | [11] 47.9 µM | [13] > 100 µM | [14] > 100 µM | [15] > 100 µM | [16] 93.1 µM | [17] > 100 µM

COc1c(Br)cc(/C=C(\C#N)c2cccnc2)cc1Br
inactive: [1] 53.1 µM | [2] 93.3 µM | [3] 34.5 µM | [4] 4.31 µM | [5] > 100 µM | [6] 26.4 µM | [7] 63 µM | [8] 80.9 µM | [9] 33.1 µM | [10] 49.1 µM | [11] 33.7 µM | [12] 37.8 µM | [13] 34.9 µM | [19] 43.7 µM | [14] 43.7 µM | [15] > 100 µM | [20] 29.5 µM | [16] 38.7 µM | [17] > 100 µM
